Where two headings read alike, the source gives them in different places.
Legend:
[1] = Serum concentration after single subcutaneous injection to cats; type: in vivo; details: cat, single subcutaneous injection 10 mg/kg, 200 mg/mL in 10% propylene glycol in glycerol formal
Procedure: Five cats (mixed breed of various sizes, males and female, approximately 4 kg) were administered 10 mg/kg of a roxithromycin composition by subcutaneous injection between the shoulder blades. The roxithromycin composition was prepared by weighing 5.128 g of roxithromycin (purity 97.5%) into a 25 mL volumetric flask, adding 2.5 mL of propylene glycol, and filling to volume with stabilized glycerol formal.
Cats were kept in a stainless steel, suspended, wire bottom cage, at least 3′×3′, provided with a litter box in an environmentally controlled room (22±3° C., a relative humidity of 30-80%, a 12 hour light/dark schedule, and room ventilation of approximately 10-12 air changes per hour.) Tap water was available ad libitum and the cats were fed PMI Feline Lab Diet #5003 or other commercial product.
Blood samples were collected on Day-1 and approximately 1 mL of whole blood was collected at 1, 8, 24, 36, 48, 60, and 72 hr following dosing and twice-daily thereafter through study termination on day 10. […] The dose site was monitored daily during the study.
The serum was analyzed by high pressure liquid chromatograph (“HPLC”) using the following procedure: […]
The serum concentration of roxithromycin was then determined by comparing the area under the curve for the HPLC peak corresponding to roxithromycin to a standard curve of peak areas v. known concentrations of roxithromycin in serum. […]

[2] = in humans; cited from earlier work
[3] = Elimination T1/2 of roxithromycin in a cat; type: in vivo; details: administered to a cat; route and dose not stated
Procedure: The phrase “elimination half life” or “T1/2,” as used herein, has the conventional meaning used in pharmacokinetics, i.e., the time taken for the maximum plasma concentration (Cmax) of a drug to reduce by 50%.
Therefore, the rate of clearance of roxithromycin from a cat, i.e., as measured by the T1/2, is much slower than when roxithromycin is administered to, for example, a human. The unexpectedly slow rate of clearance (long T1/2) allows bacterial infections in cats to be advantageously treated with a single administration of roxithromycin administered either orally or by injection. Treating a bacterial infection using a single dose of roxithromycin is simpler, more cost effective, and results in better patient compliance. Furthermore, single dose administration of roxithromycin is believed to reduce the risk of microbial strains emerging that are resistant to roxithromycin. Single dose administration of roxithromycin by injection is advantageous because administration by injection bypasses liver metabolism and the single administration precludes multiple visits to the veterinarian. Single dose administration orally, however, is less painful and can permit administration without requiring a visit to the veterinarian.

[4] = tested on: Escherichia coli; experiment: MIC, single disc method; type: cell-based
Procedure: (§1) Typically, to be effective, the minimum inhibitory concentration of the roxithromycin against a specific bacteria should be less than 10 μg/mL, preferably less than 5 μg/mL, more preferably less than 2 μg/mL, even more preferably less than 1 μg/mL, and most preferably less than 0.5 μg/mL. The activity of roxithromycin against a bacteria can be determined using standard dilution tests. For example, the minimum inhibitory concentrations can be determined using the disk diffusion susceptibility testing method described in Clinical Microbiology Procedures Handbook, volume 1, edited by Henry D. Isenberg, American Society for Microbiology, 1992, section 5.1 or the well known method of Bauer et al. “Antibiotic Susceptibility Testing by a Standardized Single Disc Method,” Amer. J. Clin. Pathol., 45, p. 493-496.
(§2) FIG. 1 provides a graphical representation of the average plasma serum concentration of roxithromycin as a function of time for the 5 cats that were administered a single dose of roxithromycin by subcutaneous injection at a dose of 10 mg/kg as a formulation containing 200 mg/mL of roxithromycin in 10% propylene glycol in glycerol formal. […] J. Clin. Pathol., 45, p. 493-496.

[5] = tested on: Streptococcus pyogenes; experiment: MIC, single disc method; type: cell-based
Procedure: as §1, §2

[6] = tested on: Staphylococcus aureus; experiment: MIC, single disc method; type: cell-based
Procedure: as §1, §2

[7] = tested on: Pasteurella multocida; experiment: MIC, single disc method; type: cell-based
Procedure: as §1, §2

[8] = tested on: Streptococcus pneumoniae; experiment: MIC, single disc method; type: cell-based
Procedure: as §1, §2

[9] = tested on: Enterococcus faecalis; experiment: MIC, single disc method; type: cell-based
Procedure: as §1, §2

[10] = tested on: Bacillus subtilis; experiment: MIC, single disc method; type: cell-based
Procedure: as §1, §2

[11] = tested on: Clostridium perfringes; experiment: MIC, single disc method; type: cell-based
Procedure: as §1, §2

[12] = literature; cited from earlier work
[13] = cat, single oral dose 20 mg/kg, capsule of powdered roxithromycin

In the case of roxithromycin, the “time for which serum concentration exceeds the MIC for several bacterial organisms” value [1] is listed as “more than 190 hours”, the half-life [2] is listed as 10 to 12 h and the “elimination T1/2” value [3] is listed as “about 73.5 hours”. The “Minimum Inhibitory Concentration (MIC)” value [4] was 32 µg/mL, the “Minimum Inhibitory Concentration (MIC)” value [5] was 0.25 µg/mL and the “Minimum Inhibitory Concentration (MIC)” value [6] was 0.25 µg/mL. For the same substance, the “Minimum Inhibitory Concentration (MIC)” value [7] was 1 µg/mL, the “Minimum Inhibitory Concentration (MIC)” value [8] was 0.25 µg/mL and the “Minimum Inhibitory Concentration (MIC)” value [9] was 8 µg/mL. The “Minimum Inhibitory Concentration (MIC)” value [10] was 0.25 µg/mL, the “Minimum Inhibitory Concentration (MIC)” value [11] was 2 µg/mL and the “stability in acidic environments” value [12] was “acid labile”. For the same substance, the “time for which serum concentration exceeds the MIC for several bacterial organisms” value [13] was “at least 150 hours”.

Source: US20090005326A1, “SINGLE DOSE ROXITHROMYCIN” (priority 2007, published 2009)
